We go through seven compounds from patent US20130129841A1, “THERAPEUTIC COMBINATION COMPRISING A PARP-1 INHIBITOR AND AN ANTI-NEOPLASTIC AGENT” (NERVIANO MEDICAL SCIENCES S.r.l., priority 2010, published 2013).

Each structure is given as a SMILES string. Like-named read-outs stand apart in the source and are kept apart here.

In series [1] the test system is ovarian cancer patients with confirmed BRCA-1 mutations. The conditions noted are these: phase I, monotherapy, oral, preliminary data; cited from earlier work.
Series [2] relates to Capan-1 BRCA-2 mutated human pancreatic xenograft model. As to conditions: for Toxicity: number of death animals. The method, then:
(§1) Balb, Nu/Nu male mice, from Harlan (Italy) or CD1 Nu/Nu female mice from CRI, were maintained in agreement with the European Communities Council Directive no. 86/609/EEC, in cages with paper filter cover, food and bedding sterilized and acidified water. Fragments of Capan-1 human pancreatic cancer tumors, MX-1 human breast cancer tumors and HCT-116 human colon carcinoma were implanted subcutaneously. KM-12 cells were grown in vitro and 3×106 in 0,2 ml were implanted subcutaneously. The treatment started when tumors were palpable.
(§2) Compounds of formula (I) were administered by oral route in a volume of 10 ml/kg at the indicated doses from day 1 to 12. Temozolomide was administered orally at the dose of 62.5 mg/kg for 5 days. When combined, compound of formula (I) was administered from day 1 to 12 and temozolomide from day 3 to day 7. Irinotecan was administered intravenous at the dose of 45 mg/kg 2 or 3 times every 4 days. When combined, compound of formula (I) was administered from day 1 to 8 or to 12 and irinotecan on day 3 and day 7 or and days 1, 5 and 9. Docetaxel was administered intravenously at the dose of 5 mg/kg once a week for three times. When combined, compound of formula (I) was administered from day 1 to 12 and docetaxel on days 1, 8 and 15.
(§3) Tumor growth and body weight were measured every 3 days. Tumor growth was assessed by caliper. The two diameters were recorded and the tumor weight was calculated according the following formula: length (mm)×width^2 /2. The effect of the antitumor treatment was evaluated as the delay in the onset of an exponential growth of the tumor (see for references Anticancer drugs 7:437-60, 1996). This delay (T-C value) was defined as the difference of time (in days) required for the treatment group (T) and the control group (C) tumors to reach a predetermined size (1 g). Toxicity was evaluated on the basis of number of death animals during the experiment.

Series [3] deals with KM-12 human colorectal cancer xenograft model pTEN mutated. The method, then:
as §1, §2, §3

The subject of series [4] is MX-1 human breast cancer xenograft model BRCA-1 mutated. As to conditions: MX-1 xenograft; for Toxicity: number of death animals. The method, then:
as §1, §2, §3

The test system of series [5] is HCT-116 human colorectal cancer xenograft model. The method, then:
as §1, §2, §3

Series [6] relates to KM-12 human colon cancer cell line. The experiment in a line: In vitro combination cytotoxic activity, cell proliferation (CellTiterGlo), 6 days. Type of series: cell-based. The method, then: (§4) Materials and methods. Exponentially growing human cancer cell line (MDA-MB-436, MDA-MB-468, A-375, HCT-116, KM-12) was seeded and incubated at 37° C. in a humidified 5% CO2 atmosphere. Drugs were added to the experimental culture, and incubations were carried out at 37° C. for 6 days in the dark. Serial dilution curves were prepared in medium by using a liquid handler Multiprobe II (PerkinElmer). Scalar doses of the compound of formula (I) and antineoplastic agents were added to the medium 24 hours after seeding. Drug solutions were prepared immediately before use. At the end of treatment, cell proliferation was determined by an intracellular adenosine triphosphate monitoring system (CellTiterGlo- Promega) using an Envision (PerkinElmer) reader. Inhibitory activity was evaluated comparing treated versus control data using the Assay Explorer (MDL) program. The dose inhibiting 50% of cell growth was calculated using sigmoidal interpolation curve.
(In ATP-based viability assays light output follows the ATP content of the culture.)

Series [7] deals with HCT-116 human colon cancer cell line. Described as above. Type of series: cell-based. The conditions noted are these: single agent. The method, then: as §4
Series [8] relates to A-375 human melanoma cell line. The series is described as above. Type of series: cell-based. As to conditions: single agent. The method, then: as §4, with “Exponentially growing human cancer cell line (MDA-MB-436, MDA-MB-468, A-375, HCT-116, KM-12) was seeded and incubated at 37° C. in a humidified 5% CO2 atmosphere.” left out
Where [9] appears, read: Capan-1, Table 8, Compound 1 100 mg/kg oral, days 1 to 12.
The mark [10] stands for this setting: Capan-1, Table 9, Compound 2 50 mg/kg oral, days 1 to 12.
[11] abbreviates: Compound 2 100 mg/kg oral, days 1 to 8 (footnote *).
Setting [12] is: docetaxel 5 mg/kg intravenous, days 1, 8 and 15.
[13] abbreviates: Capan-1, Table 8, temozolomide 62.5 mg/kg oral, days 3 to 7.
[14] abbreviates: Capan-1, Table 9, temozolomide 62.5 mg/kg oral, days 3 to 7.

For the compound `O=C(c1cc(Cc2n[nH]c(=O)c3ccccc23)ccc1F)N1CCN(C(=O)C2CC2)CC1` [AZD2281], in series [1], the partial responses is reported as 4 out of 10.

Take `NC(=O)c1cccc2c1C(=O)N(C1CCN(C3CCC(F)(F)CC3)CC1)C2` [Compound 1, 2-[1-(4,4-difluorocyclohexyl)piperidin-4-yl]-3-oxo-2,3-dihydro-1H-isoindole-4-carboxamide]: in series [2] (setting [9]), the T-C was found to be 5 days and the Toxicity is on record as 0/7.

Take `NC(=O)c1cc(F)cc2c1C(=O)N(C1CCN(C3CCC(F)(F)CC3)CC1)C2` [Compound 2, 2-[1-(4,4-difluorocyclohexyl)piperidin-4-yl]-6-fluoro-3-oxo-2,3-dihydro-1H-isoindole-4-carboxamide]: the T-C in series [3] (KM-12 xenograft, Compound 2 50 mg/kg oral, days 1 to 12) was 1 days; in series [2] (setting [10]), 6 days; in series [4] (setting [11]), 2 days; in series [5] (HCT-116 xenograft, Compound 2 50 mg/kg oral, days 1 to 8), 1 days; in series [5] (HCT-116 xenograft, Compound 2 100 mg/kg oral, days 1 to 8) it was 4 days. In addition, the Toxicity is reported as 0/7 in series [3] (mouse, in vivo, po, 50 mg/kg); 0/7 in series [2] (setting [10]); 0/7 in series [4] (setting [11]); 0/7 in series [5] (mouse, in vivo, po, 50 mg/kg); 0/7 in series [5] (mouse, in vivo, po, 100 mg/kg). The IC50 in series [6] (Homo sapiens, KM12, single agent) is 19.4 µM; in series [7] (Homo sapiens) it was 14.1 µM; in series [8] it was 32.5 µM.

Take `CC(=O)O[C@@]12CO[C@@H]1C[C@H](O)[C@@]1(C)C(=O)[C@H](O)C3=C(C)[C@@H](OC(=O)[C@H](O)[C@@H](NC(=O)OC(C)(C)C)c4ccccc4)C[C@@](O)([C@@H](OC(=O)c4ccccc4)[C@H]21)C3(C)C` [Docetaxel, docetaxel, reference compound]: in series [4] (setting [12]), the T-C amounted to 3 days and the Toxicity is listed as 0/7.

With `CCc1c2c(nc3ccc(OC(=O)N4CCC(N5CCCCC5)CC4)cc13)-c1cc3c(c(=O)n1C2)COC(=O)[C@]3(O)CC` [Irinotecan, irinotecan, reference compound], the T-C in series [3] (KM-12 xenograft, irinotecan 45 mg/kg intravenous, days 3 and 7) is 1 days; in series [5] (HCT-116 xenograft, irinotecan 45 mg/kg intravenous, days 1, 5 and 9), 16 days. Besides, the Toxicity in series [3] (KM-12 xenograft, irinotecan 45 mg/kg intravenous, days 3 and 7, number of death animals) is reported as 0/7; in series [5] (HCT-116 xenograft, irinotecan 45 mg/kg intravenous, days 1, 5 and 9, number of death animals), 0/7.

As to `CCc1c2c(nc3ccc(O)cc13)-c1cc3c(c(=O)n1C2)COC(=O)[C@]3(O)CC` [SN-38, reference compound], the values for the IC50 in series [6] (single agent) and in series [7] were 0.0015 µM and 0.0011 µM, respectively.

For the compound `Cn1nnc2c(C(N)=O)ncn2c1=O` [Temozolomide, temozolomide, reference compound], in series [2] (setting [13]), the T-C turned out to be 5 days and the Toxicity was 0/7. For the same compound, in series [2] (setting [14]), the T-C is reported as 9 days and the Toxicity is 0/7. Also, the IC50 in series [8] was found to be 932 µM.

By IC50 is commonly meant the concentration that gives 50% inhibition.
